In patent US6214992A (Hoechst Aktiengesellschaft, priority 1996, dated 2001):
Where two headings read alike, the source gives them in different places.

Columns and labels:
[1] = test system: C57BL/6 mice; assay: endotoxin (LPS)-induced lethal shock, decrease in mortality; assay type: in vivo; conditions: Mus musculus, ip, read-out: Inhibition of mortality
Method: For the testing of preparations for antishock action, various experimental animal models have been developed.
To carry out the experiments, a mixture of 10 ng of LPS from Salmonella abortus equi. and 7.5 mg of galactosamine in 0.2 ml of phosphate-buffered,physiological saline solution was administered to each animal by intravenous injection, which as a rule led to death within 6 to 9 hours. The test preparations were administered intraperitoneally one hour before LPS provocation at a dose of 100 mg/kg. The animals of the control group (n=10) instead of this received pure 0.9% saline solution as placebo. To assess the action of the preparation, the number of surviving animals was determined in the treated group (n=10) 48 hours after LPS administration and from this the percentage inhibition of mortality was determined with respect to the mortality in the control group.

[2] = test system: Mongolian gerbils; assay: transient global ischemia, CA1 hippocampus nerve cell damage; assay type: in vivo, Mongolian gerbil; conditions: Meriones unguiculatus, ip, 168 h, histopathological score after 7 days versus untreated control, read-out: Inhibition of the neuronal CA1 hippocampus damage; for inhibition in vivo at 10 mg/kg: Dose 10 mg/kg intraperitoneally 30 minutes after 3-minute ischemia
Method: To carry out the experiment, which took place according to the guidelines of the German Animal Protection Act, 30 male Mongolian gerbils having a body weight of between 60 and 70 g were randomly divided into two groups each containing 15 animals. The respective test substance was administered to the animals of the first group 30 minutes after the ischemia period by intraperitoneal injection, while the animals of the second group, which served as an untreated control group, only received the same volume of the vehicle concerned. To produce the temporary forebrain ischemia, the animals were fixed in the supine position to a heated operated table, and both common carotid arteries were carefully exposed and closed for 3 minutes by means of microaneurysm clips. 7 days after the 3-minute ischemia period, the animals were decapitated under halothane anesthesia, the brains were rapidly and carefully removed, first fixed by immersion in Carnoy's solution (ethanol/chloroform/acetic acid=6/3/1) and then embedded in paraffin. Subsequently 4 to 6 μm thick coronal sections through the hippocampus were prepared approximately at the height of the bregma and these were stained with hematoxylin and eosin. After this, the extent of eosinophilic necrosis of the pyramidal cells in the CA1 region of the hippocampus was determined by light microscopy in the course of a blind experiment by means of a semiquantitative histopathological score (0=none; 1=slight; 2=medium severe; 3=severe and 4=complete necroses). The assessment variable used for the neuroprotective action was the percentage change in the mean histopathological score of the preparation group compared to that of the untreated control group.

[3] = test system: Mongolian gerbils; conditions: gerbil, comparable experimental conditions; J. Cereb. Blood Flow Metab. 1987, 7/1: 74-81; cited from earlier work
[4] = test system: rat; conditions: comparable experimental conditions, J. Cereb. Blood Flow Metab. 1994, 14/1: 166-173; cited from earlier work
[5] = 100 mg/kg intraperitoneally one hour before LPS/galactosamine, survivors 48 hours after LPS, versus placebo control

| SMILES | inhibition in vivo at 100 mg/kg [1, 5] [%] | inhibition in vivo at 10 mg/kg [2] [%] | other results |
| --- | --- | --- | --- |
| CCCOCn1c(=O)c2[nH]cnc2n(C)c1=O [Compound 26] | 100 | – | – |
| CCCCOCCn1c(=O)c2[nH]cnc2n(CC)c1=O [Compound 44] | 30 | 64 | – |
| CCn1c(=O)n(CCOC)c(=O)c2[nH]cnc21 [Compound 7] | – | 33 | – |
| CCCCn1c(=O)n(CCOc2ccccc2)c(=O)c2[nH]cnc21 [Compound 63] | – | 27 | – |
| CCCOCn1c(=O)c2[nH]cnc2n(C(C)C)c1=O [Compound 29] | 50 | – | – |
| CCCOCn1c(=O)c2[nH]cnc2n(CC(C)C)c1=O [Compound 31, 3-Isobutyl-1-propoxymethylxanthine] | 30 | – | – |
| CC(C)COCn1c(=O)c2[nH]cnc2n(C)c1=O [Compound 48, 1-Isobutoxymethyl-3-methylxanthine] | 40 | – | – |
| CCn1c(=O)n(COc2ccc(Cl)cc2)c(=O)c2[nH]cnc21 [Compound 66] | – | 23 | – |
| CCn1c(=O)n(CCOc2ccccc2)c(=O)c2[nH]cnc21 [Compound 61] | – | 23 | – |
| CCCCn1c(=O)n(COCCC)c(=O)c2[nH]cnc21 [Compound 30] | – | 24 | – |
| CCCOCCn1c(=O)c2[nH]cnc2n(CC)c1=O [Compound 36] | – | 23 | – |
| CCCOCn1c(=O)c2[nH]cnc2n(-c2ccccc2)c1=O [Compound 32, 3-Phenyl-1-propoxymethylxanthine] | 90 | – | – |
| CCn1c(=O)n(CCOC)c(=O)c2c1ncn2Cc1ccccc1 [Compound 77] | – | 33 | – |
| CCCCn1c(=O)n(CCOCC)c(=O)c2[nH]cnc21 [Compound 24] | – | 30 | – |
| CCCOCn1c(=O)c2c(ncn2Cc2ccccc2)n(C2CC2)c1=O [Compound 103] | – | 32 | – |
| CCCn1c(=O)n(CCOC)c(=O)c2[nH]cnc21 [Compound 8] | – | – | inhibition in vivo at 100 mg/kg ([1]; 48 h): 30% |
| COCCn1c(=O)c2[nH]cnc2n(C)c1=O [Compound 6] | – | 20 | – |
| CCn1c(=O)n(CCCOC)c(=O)c2c1ncn2Cc1ccccc1 [Compound 82] | – | 30 | – |
| CCC(C)OCn1c(=O)c2[nH]cnc2n(CC)c1=O (stereo not drawn) [Compound 52, 1-sec-Butoxymethyl-3-ethylxanthine] | 30 | – | – |
| CCCOCn1c(=O)c2[nH]cnc2n(CC2CC2)c1=O [Compound 34, 3-Cyclopropylmethyl-1-propoxymethylxanthine] | 30 | – | – |
| CCCOCn1c(=O)c2[nH]cnc2n(CCC)c1=O [Compound 28] | – | 30 | – |

| SMILES | inhibition in vivo at 100 mg/kg [1, 5] [%] | inhibition in vivo at 10 mg/kg [2] [%] | other results |
| --- | --- | --- | --- |
| CC(C)COCn1c(=O)c2[nH]cnc2n(C2CC2)c1=O [Compound 50] | 40 | – | – |
| CCn1c(=O)n(COCCOC)c(=O)c2[nH]cnc21 [Compound 54] | 30 | 36 | – |
| CCOCn1c(=O)c2[nH]cnc2n(C)c1=O [Compound 16] | 100 | – | – |
| Cn1c(=O)c2[nH]cnc2n(C)c1=O [theophylline, 1,3-dimethylxanthine] | – | – | inhibition of ischemic nerve cell damage [3]: inhibits ischemic nerve cell damage neither; inhibition of ischemic nerve cell damage [4]: inhibits ischemic nerve cell damage neither |
| CCn1c(=O)n(COc2ccccc2)c(=O)c2[nH]cnc21 [Compound 58] | – | 20 | – |
| CCCn1c(=O)n(CCOCC)c(=O)c2[nH]cnc21 [Compound 23] | – | – | inhibition in vivo at 100 mg/kg ([1]; 48 h): 40% |
| CCn1c(=O)n(COC)c(=O)c2[nH]cnc21 [Compound 2] | 30 | – | – |
| CCOCCn1c(=O)c2[nH]cnc2n(C)c1=O [Compound 21] | 40 | – | – |
| COCn1c(=O)c2[nH]cnc2n(C)c1=O [Compound 1, 1-Methoxymethyl-3-methylxanthine] | 80 | – | – |
| CCCCOCn1c(=O)c2[nH]cnc2n(CC)c1=O [Compound 41] | 40 | – | – |
| CCCOCCn1c(=O)c2[nH]cnc2n(C2CC2)c1=O [Compound 39] | 30 | 36 | – |
| COCn1c(=O)c2[nH]cnc2n(C2CC2)c1=O [Compound 5] | – | 20 | – |
| CCCOCCn1c(=O)c2[nH]cnc2n(CCC)c1=O [Compound 37, 1-(2-Propoxyethyl)-3-propylxanthine] | 80 | – | – |
| CCCOCn1c(=O)c2[nH]cnc2n(CC)c1=O [Compound 27, 3-Ethyl-1-propoxymethylxanthine] | 100 | 67 | inhibition in vivo at 5 mg/kg ([2]; Dose 5 mg/kg intraperitoneally 30 minutes after 3-minute ischemia): 40% |
| CCCCOCn1c(=O)c2[nH]cnc2n(C)c1=O [Compound 40] | 40 | – | – |
| CCOCn1c(=O)c2[nH]cnc2n(CC)c1=O [Compound 17] | 100 | 66 | – |
| CCCCn1c(=O)n(COC)c(=O)c2[nH]cnc21 [Compound 4] | 30 | – | – |
| CCOCCn1c(=O)c2[nH]cnc2n(C2CC2)c1=O [Compound 25] | – | 24 | – |
| CCCOCCn1c(=O)c2[nH]cnc2n(C)c1=O [Compound 35] | 30 | – | – |
| CCCCOCCn1c(=O)c2c(ncn2Cc2ccccc2)n(CC)c1=O [Compound 114] | – | 27 | – |
